Measurements: patent publication US9034863B2, “Compositions and methods for inhibiting entry of a hepatic virus” (The Board of Trustees of the University of Illinois, priority 2008, dated 2015)

Experiments:
HCVcc = assay: HCV cell-to-cell spread, foci-size assay with cell-free spread blocked by anti-E2 antibody; type: cell-based, Hepatitis C virus (HCV)
Experimental: Using an established antibody blocking approach (Timpe, et al. (2008) Hepatology 47:17-24), in which an antibody to the HCV E2 glycoprotein is used to block cell-free virus spread, the role of NPC1L1, CD81, or claudin-1 in cell-to-cell spread was tested. Briefly, subconfluent Huh7 cells were inoculated with HCVcc at a low multiplicity of infection (MOI) of 0.01 ffu/cell for 15 hours to allow sufficient time for initial viral entry into the primary cells (Sabahi, et al. (2010) Virology 407:110-9). Cells were then washed and cell-free virus spread was blocked by addition of an anti-E2 antibody at a concentration which neutralizes extracellular virus infection of cells. In parallel, cultures were co-treated with antibodies to CD81, Claudin-1 or NPC1L1 to determine if blocking of these factors prevents cell-to-cell spread. At seventy two hours post-infection, monolayers were fixed and stained for HCV-positive foci. Spread was determined by the size of the foci, as quantified by the number of cells per foci. Foci composed of 1-2 HCV E2-positive cells, which could have formed via cell division, were scored as infections that had not spread cell-to-cell, and are referred to as one-two cell foci, and represent a baseline for the assay. Foci containing […] cells were scored as infections that had successfully spread cell-to-cell, and are referred to as multicellular foci.
To confirm the role of NPC1L1 in HCV spread and verify that ezetimibe inhibits HCV cell-to-cell spread, Huh7-1 cells were inoculated with HCV JFH-1 at an MOI of 0.01 for 16 hours to allow cell-free entry to initiate infection in a small percentage of cells, before being washed and then incubated with increasing concentrations of ezetimibe. Once again extracellular HCV entry was blocked by the addition of anti-E2 antibody to neutralize cell-free virus in all cultures. […] Cells were fixed at 72 hours post-infection, and then stained to detect the number and the size of the E2-positive foci. The foci were counted and scored as one-two cell foci or as multicellular foci. […] To ensure that multicellular foci were not a result of cell division over the time course of the experiment, the same experiment was repeated in non-growing Huh7-1 cells and similar results were obtained.
Because HCV cell-free spread requires the production and secretion of infectious viral particles from infected cells, an alternative way to block cell-free virus spread is to prevent the release of infectious virus from already infected cells. […] It was of interest to determine whether the VLDL secretory pathway and related virion lipid modifications are required for cell-to-cell spread. […]

[1] = test system: intergenotypic HCVcc chimeras; assay: Cell-to-cell spread of intergenotypic HCVcc chimeras in non-growing Huh7-1 cells; type: cell-based, Hepatitis C virus (HCV)
Excerpt: To determine if ezetimibe might be an effective therapeutic for inhibiting HCV spread of other HCV genotypes, intergenotypic HCVcc chimeras were used, in which the core through E2 region of the JFH-1 clone had been replaced with analogous regions of various HCV genotypes including H77C, J4, J8, ED43, SA13, HK6A and QC69 (Gottwein, et al. (2009) Hepatology 49(2):364-77). Again, to avoid issues of cell division, non-growing Huh7-1 cells were infected with the different chimeric viruses, and after 16 hours, the cells were washed and 0 μM or 30 μM ezetimibe was added to parallel cultures. Since the chimeras encode unique E2 proteins and thus may have differing sensitivity to inhibition by the anti-E2 antibody, in this experiment methyl cellulose was added to all cultures as an alternative means of minimizing cell-free virus spread. Seventy-two hours post-infection, the cells were fixed and stained with an antibody to HCV NS5A to detect the size of the foci formed. In all cases, the size of foci formed by each chimera were reduced in the presence of ezetimibe relative to the mock-treated control culture confirming not only that all of these genotypes use the NPC1L1 receptor for cell-to-cell spread, but that the spread of all the chimeric viruses can be inhibited by ezetimibe.
To determine if naringenin affects spread of any of the other HCV genotypes, non-growing Huh7-1 cells were infected with the different intergenic chimeric viruses and after 16 hours, the cells were washed and naringenin was added. Methyl cellulose was added to each well to prevent cell-free virus spread. In parallel, a control set of wells was treated with methyl cellulose alone. Five days post-infection, the cells were fixed and stained to detect the number of HCV NS5A-positive cells.

Row | Compound | size of foci (HCVcc; 30 μM added post-viral inoculation) | number of independent infection initiation events (foci of 1-2 E2-positive cells) (HCVcc; added post-infection, 24 hours post-infection) | size of the E2-positive foci formed (HCVcc; increasing concentrations added post-inoculation, 72 hours post-infection) | size of foci formed by each chimera ([1]; 30 μM, methyl cellulose, 72 hours post-infection, relative to mock-treated) | HCV cell-to-cell spread (number and size of foci) (HCVcc; non-growing Huh7-1 cells, five days post-infection, vs vehicle) | size of foci, J8/JFH-1 (2B/JFH-1) chimera ([1]; J8/JFH-1 chimera) | cell-to-cell spread of chimeric viruses ([1]; all chimeric viruses except J8/JFH-1, five days post-infection)
1 | O=C1[C@H](CC[C@H](O)c2ccc(F)cc2)[C@@H](c2ccc(O)cc2)N1c1ccc(F)cc1 [ezetimibe, 1-(4-fluorophenyl)-(3R)-[3-(4-fluorophenyl)-(3S)-hydroxypropyl]-(45)-(4-hydroxyphenyl)-2-azetidinone] | foci of 1-2 cells | did not block infection | dose-dependent inhibition | reduced | – | – | –
2 | O=C1C[C@@H](c2ccc(O)cc2)Oc2cc(O)cc(O)c21 [naringenin] | – | – | – | – | inhibition of cell-to-cell spread was not detected | reduced the size of foci | not inhibited
